For series [1], the target named is Histone deacetylase 3 (Homo sapiens) (UniProt O15379). As to the kind of experiment: Inhibition of HDAC3 in human Jurkat T cells assessed as increase in acetylated H3 level incubated for 12 hrs by Western blot analysis. Format: cell-based. Background: A western blot detects proteins with antibodies after separation by electrophoresis.
Series [2] can be described thus: AUC (0 to infinity) in male Sprague-Dawley rat at 2 mg/kg, iv measured after 48 hrs by triple quadrupole mass spectrometric analysis. Type of series: ADME, organism-based. Particulars: in vivo.
A short description of series [3]: Apparent clearance during terminal phase in male Sprague-Dawley rat at 10 mg/kg, po measured after 48 hrs by triple quadrupole mass spectrometric analysis. Format: ADME, organism-based. Conditions: in vivo.
In series [4] the test system is B16-F10. As to the kind of experiment: Effect on HDAC6 protein level in mouse B16-F10 cells at 0.1 to 2 uM incubated for 12 hrs by Western blot analysis. Conditions: dose 0.1-2 µM. Type of series: functional, cell-based.
A short description of series [5]: Toxicity in C57 mouse assessed as change in ALT level at 20 mg/kg/day, IG administered for 14 days by heat map analysis. Format: organism-based. Particulars: in vivo, po, 336 h, time 14 day.
Series [6] is described as follows: Toxicity in C57 mouse assessed as myelosuppression by measuring PDW level at 20 mg/kg/day, IG administered for 14 days by heat map analysis. Format: organism-based. Particulars: in vivo, po, 336 h, time 14 day.
In the next series the target is T1, Histone deacetylase 7 (Homo sapiens, UniProt Q8WUI4).
T1 sequence (Q8WUI4 whole entry): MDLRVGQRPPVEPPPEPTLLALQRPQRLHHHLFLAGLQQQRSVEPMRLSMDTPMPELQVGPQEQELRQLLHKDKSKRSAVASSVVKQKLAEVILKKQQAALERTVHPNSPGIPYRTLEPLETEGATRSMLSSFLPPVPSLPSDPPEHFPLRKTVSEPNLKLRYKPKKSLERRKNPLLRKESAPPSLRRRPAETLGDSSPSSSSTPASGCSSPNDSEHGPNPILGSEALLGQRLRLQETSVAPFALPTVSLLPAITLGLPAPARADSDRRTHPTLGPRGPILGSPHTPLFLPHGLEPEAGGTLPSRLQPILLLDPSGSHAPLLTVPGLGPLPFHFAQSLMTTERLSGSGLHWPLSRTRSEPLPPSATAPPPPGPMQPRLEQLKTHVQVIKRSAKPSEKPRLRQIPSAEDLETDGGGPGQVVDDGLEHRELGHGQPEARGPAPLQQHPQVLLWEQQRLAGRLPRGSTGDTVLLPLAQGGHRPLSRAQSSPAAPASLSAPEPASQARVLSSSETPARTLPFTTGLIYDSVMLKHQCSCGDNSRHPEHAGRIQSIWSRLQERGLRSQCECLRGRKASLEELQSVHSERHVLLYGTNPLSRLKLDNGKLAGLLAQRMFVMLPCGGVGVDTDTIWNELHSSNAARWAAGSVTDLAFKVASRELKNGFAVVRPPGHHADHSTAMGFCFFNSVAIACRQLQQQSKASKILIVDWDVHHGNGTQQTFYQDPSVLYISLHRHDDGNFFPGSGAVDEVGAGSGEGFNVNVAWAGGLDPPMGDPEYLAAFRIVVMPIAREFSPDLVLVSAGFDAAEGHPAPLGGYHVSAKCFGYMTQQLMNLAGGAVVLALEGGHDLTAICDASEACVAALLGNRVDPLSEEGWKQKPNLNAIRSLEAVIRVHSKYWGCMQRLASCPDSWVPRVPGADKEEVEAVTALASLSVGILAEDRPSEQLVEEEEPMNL
As to the kind of experiment: Inhibition of N-terminal GST-tagged recombinant human HDAC7 (501 to 952 residues) extracted from baculovirus expression system using Ac-Leu-Gly-Lys (Tfa)-AMC as substrate preincubated for 5 mins followed by substrate addition and measured after 30 mins by fluorescence microplate reader analysis.

Series [7] in a line: AUC (0 to t) in male Sprague-Dawley rat at 10 mg/kg, po measured after 48 hrs by triple quadrupole mass spectrometric analysis. Type of series: ADME, organism-based. Particulars: in vivo.
Series [8] in a line: AUC (0 to t) in male Sprague-Dawley rat at 2 mg/kg, iv measured after 48 hrs by triple quadrupole mass spectrometric analysis. Type of series: ADME, organism-based. Particulars: in vivo.
The target of series [9] is Histone deacetylase 1 (Mus musculus) (UniProt O09106). Description: Inhibition of HDAC1 in mouse B16-F10 cells assessed as increase in acetylated H3 level incubated for 12 hrs by Western blot analysis. Format: cell-based.
In series [10] the target is T2, Histone deacetylase 3 (Mus musculus) (UniProt O88895).
T2 sequence (whole entry): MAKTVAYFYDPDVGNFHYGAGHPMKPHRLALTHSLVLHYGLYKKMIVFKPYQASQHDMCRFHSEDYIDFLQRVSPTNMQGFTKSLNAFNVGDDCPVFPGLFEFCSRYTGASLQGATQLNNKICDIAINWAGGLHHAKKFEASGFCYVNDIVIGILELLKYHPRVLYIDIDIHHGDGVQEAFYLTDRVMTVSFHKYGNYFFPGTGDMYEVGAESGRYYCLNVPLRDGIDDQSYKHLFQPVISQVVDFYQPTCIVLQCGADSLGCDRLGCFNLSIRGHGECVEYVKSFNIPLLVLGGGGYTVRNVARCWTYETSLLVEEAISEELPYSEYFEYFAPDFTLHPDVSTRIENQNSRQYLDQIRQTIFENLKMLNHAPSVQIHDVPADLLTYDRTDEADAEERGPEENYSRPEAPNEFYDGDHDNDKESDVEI
Description: Inhibition of HDAC3 in mouse B16-F10 cells assessed as increase in acetylated H3 level incubated for 12 hrs by Western blot analysis. Format: cell-based.

Series [11] relates to Jurkat. As to the kind of experiment: Effect on Histone H3 protein level in human Jurkat T cells at 0.1 to 2 uM incubated for 12 hrs by Western blot analysis. Format: functional, cell-based. Conditions: dose 0.1-2 µM.
Another series has as its system MCF7. Description: cells. Conditions: Homo sapiens, MCF7, 48 h.
Series [12] deals with B16-F10. As to the kind of experiment: cells. Conditions: Mus musculus, B16-F10, 48 h.
The nature of series [13]: Aqueous solubility of compound incubated for 24 hrs by miniaturized shake flask based HPLC analysis. Format: physicochemical. Conditions: buffer.
Series [14] concerns Jurkat. As to the kind of experiment: Cytotoxicity against human Jurkat T cells assessed as reduction in cell viability at 0.01 to 1 uM incubated for 48 hrs. Format: functional, cell-based. Particulars: dose 0.01-1 µM.
The nature of series [15]: Toxicity in C57 mouse assessed as myelosuppression by measuring PCT level at 20 mg/kg/day, IG administered for 14 days by heat map analysis. Type of series: organism-based. Particulars: in vivo, po, 336 h, time 14 day.
The next series deals with HepG2. As to the kind of experiment: cells. Particulars: Homo sapiens, HepG2, 48 h.

In brackets after ≈: the same amount, converted by molar mass. Activity calls are given as the source filed them. The calls are words filed in the database; no cut-off is given here.

Chain of Histone deacetylase 1 (Mus musculus) (O09106 whole entry): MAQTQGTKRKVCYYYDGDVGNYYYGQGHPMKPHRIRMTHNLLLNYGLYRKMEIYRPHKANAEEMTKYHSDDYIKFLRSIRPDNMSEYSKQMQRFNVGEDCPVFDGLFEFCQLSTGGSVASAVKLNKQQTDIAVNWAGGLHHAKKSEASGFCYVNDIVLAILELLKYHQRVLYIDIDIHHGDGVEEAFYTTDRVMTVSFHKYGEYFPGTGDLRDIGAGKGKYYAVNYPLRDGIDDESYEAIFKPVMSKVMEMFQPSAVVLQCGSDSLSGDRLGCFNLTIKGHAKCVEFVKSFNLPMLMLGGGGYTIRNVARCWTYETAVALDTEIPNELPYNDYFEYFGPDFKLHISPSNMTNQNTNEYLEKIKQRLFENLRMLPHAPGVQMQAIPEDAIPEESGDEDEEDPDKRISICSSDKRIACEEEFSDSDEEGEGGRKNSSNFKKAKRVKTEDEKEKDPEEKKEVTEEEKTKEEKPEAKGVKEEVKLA
Chain of Histone deacetylase 3 (Homo sapiens) (O15379 whole entry): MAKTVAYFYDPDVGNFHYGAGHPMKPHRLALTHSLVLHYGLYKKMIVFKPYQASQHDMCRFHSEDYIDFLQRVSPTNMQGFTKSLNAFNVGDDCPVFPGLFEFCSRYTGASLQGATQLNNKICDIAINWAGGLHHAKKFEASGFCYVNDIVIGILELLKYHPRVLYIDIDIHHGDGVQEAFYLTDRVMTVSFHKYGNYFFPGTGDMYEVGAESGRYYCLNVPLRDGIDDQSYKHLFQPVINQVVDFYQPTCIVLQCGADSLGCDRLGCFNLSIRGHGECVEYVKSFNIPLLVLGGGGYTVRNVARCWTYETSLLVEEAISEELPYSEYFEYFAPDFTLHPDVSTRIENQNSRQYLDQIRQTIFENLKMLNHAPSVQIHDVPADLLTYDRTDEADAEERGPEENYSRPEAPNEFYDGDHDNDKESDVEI

Take `COc1nc(-c2cccc(-c3ccccc3)c2C)ccc1CNCCCCCCC(=O)NO`: the inhibition result in series [1], in [9] and in series [10] was “inactive” each time. Besides, the AUC(0-inf) in [2] is 1290 ng·h/mL. Besides, the CLz/F in series [3] came to 25 mL/min/kg. Further, the result in the series with B16-F10 [4], with Jurkat [11] and with Jurkat [14] was inactive. Besides, the Activity result in series [5], in series [6] and in [15] was “Non-toxic” throughout. Further, the half-inhibitory concentration (IC50) at Histone deacetylase 7 is more than 100 µM; in the series on MCF7 it was more than 10 µM; with B16-F10 [12] it was 8.1 µM; in the series on HepG2 it was 9.6 µM. Besides, the exposure AUC(0-t) at 48 h in series [7] is 872 ng·h/mL; in [8] it was 1140 ng·h/mL. This compound had a solubility (thermodynamic) at 24 h in series [13] of 57 µg/mL (≈ 127 µM).

For orientation: AUC(0-inf) means total exposure, with the tail of the curve extrapolated. As usually defined, the IC50 is the concentration at which inhibition is half-maximal. As a reminder, the AUC(0-t) is the area under the concentration-time curve up to a stated or last time point. High values mean more exposure, low ones less exposure. For orientation: thermodynamic solubility means solubility found after equilibrating the solid with the medium.

These data come from ChEMBL document CHEMBL6153170 (J Med Chem, 2025).
